# Test: Solubility assessment as a function of HPβCD concentration
# Assay type: physicochemical
# Conditions: water
# Protocol: Solubility studies were performed by the addition of a known mass of 5(6)-methoxy-2-[[(4-methoxy-3,5-dimethyl-2-pyridinyl)-methyl]sulfinyl]-1H- benzimidazole and/or HP CD to a given volume of solvent system. Solubilities were determined by observation, as the maximum concentration at which 5(6)-methoxy-2-[[(4-methoxy-3,5-dimethyl-2-pyridinyl)-methyl]sulfinyl]-1H- benzimidazole completely dissolved. Additionally, concentrations of 5(6)-methoxy-2-[[(4-methoxy-3,5-dimethyl-2-pyridinyl)-methyl]sulfinyl]-1H- benzimidazole and HP C D at set molar ratios were solubilized in systems of high pH (adjusted as high as 12.2, with 1N NaOH), the pH was adjusted (using 2N HCl) in a stepwise downward manner until precipitation occurred.
# The solubility of 5(6)-methoxy-2-[[(4-methoxy-3,5-dimethyl-2-pyridinyl)-methyl]sulfinyl]-1H- benzimidazole was assessed as a function of HPβCD concentration in water.
# The procedure according to Example 86 was repeated except that water with a borate buffer (pH of 8) was employed.
# The procedure according to Example 86 was repeated except that water with a phosphate buffer (pH of 11) was employed.
smiles,measurement,value
"COc1ccc2[nH]c([S+]([O-])Cc3ncc(C)c(OC)c3C)nc2c1 (centres unmarked) [5(6)-methoxy-2-[[(4-methoxy-3,5-dimethyl-2-pyridinyl)-methyl]sulfinyl]-1H-benzimidazole]",Solubility as a function of HPβCD concentration,increase linearly as a function of HPβCD concentration
same,influence of pH on solubility,influenced by solution pH

# Reference: US6316020A, “Pharmaceutical formulations” (priority 2000, dated 2001)
